For experiment [1], the system named is NF-κB pathway (STING-dependent). Description: NF-κB-inducible SEAP reporter in THP1-Dual reporter cell model. It is filed as cell-based, human. From the text: (§1) The THP1-Dual™ reporter cell model for simultaneously monitoring the activity of the IRF and NF-κB pathway contains an IRF-inducible luciferase reporter under the control of an ISG54 minimal promoter in conjunction with five interferon (IFN)-stimulated response elements, and an induced SEAP driven by an IFN-β minimal promoter fused to five copies of the NF-κB consensus transcriptional response element and three copies of the c-Rel binding site. The luciferase and SEAP reporter are measurable in the cell culture supernatant using QUANTI-Luc™ 4 Lucia/Gaussia (InvivoGen) and QUANTI-Blue™ (InvivoGen) solution, respectively. Cells were seeded at 1 × 10^5 cells per well in 96-well plates in RPMI-1640 medium, supplemented with 10% FCS, L-glutamine and Pen-Strep. After 2 h of recovery, the compounds were applied at the concentrations indicated in triplicate. The cell culture supernatant (SN) was collected after 24 h of drug incubation and secreted luciferase and SEAP reporter levels were measured according to the manufacturer's recommendations. In brief, for the detection of luciferase, 20 μL of SN were transferred into 96-well white opaque plates, and 30 μL of QUANTI-Luc™ reagent were added per well using an injector module in a multimode microplate reader (Tecan Spark, Zurich, Switzerland). Luminescence was recorded at a reading time of 0.1 second. For the detection of SEAP, 10 μL of SN were transferred to 96-well plates and 90 μL of QUANTI-Blue™ were added per well. Absorbance was measured at 620 nm. Half-maximal effective concentrations (EC50 values) were derived via interpolation from dose–response curves, modeled with the four-parameter logistic (4PL) nonlinear regression model in GraphPad Prism. For comparison, the maximal response rate of the prodrug was depicted in the percent of the maximal response rate achieved by SR-717 or MSA-2 (%EMAX) at the respective concentrations tested. Activatability, tested in co-incubation experiments with AA (50 μM), was expressed as the area under the curve (AUC) ratio of +AA vs. −AA-treated cells. The STING-dependency of the reporter induction was tested by co-administration of the STING inhibitor H-151 (10 μM), added to the cell culture medium 2 h before applying the investigated compounds. In addition to monitoring secreted reporter levels, the cell viability of the reporter cells was determined after 24 h of drug treatment by an MTT-based cell viability assay.

The subject of experiment [2] is THP1-Dual, HCT116, HCT116/OxR and CT-26 cells. Description: MTT-based cell viability assay, 72 h, statements over all investigated cell lines. The note with it: none of the investigated cell lines vulnerable, read-out: IC50 of free single agent. On the set-up: species or system human and murine. As for the experimental part: Cell models were seeded (2–2.5 × 10^3 cells per well) in 96-well plates. After 24 h of recovery, the compounds were applied at the concentrations indicated in triplicate. Cell viability was determined after 72 h of continuous drug incubation using an MTT-based cell viability assay (EZ4U, Biomedica, Vienna, Austria) according to the manufacturer's recommendations. Absorbance was measured at 450 nm (vs. 620 nm as reference) using a multimode microplate reader (Tecan Spark, Zurich, Switzerland). Half-maximal inhibitory concentrations (IC50 values) were derived via interpolation from dose–response curves, modeled with the four-parameter logistic (4PL) nonlinear regression model in GraphPad Prism (La Jolla, CA, USA) from at least three independent experiments.

The subject of experiment [3] is IRF pathway (STING-dependent). Kind of experiment: IRF-inducible luciferase reporter in THP1-Dual reporter cell model. It is filed as cell-based, human.
Text: as §1
Background: In a reporter assay the amount or activity of a reporter protein is the signal.

Experiment [4] has as its system IRF pathway (STING-dependent). On the set-up: method as in PMID 32820126. To be noted: read-out: IRF EC50, previous report; cited from earlier work.
Where [5] appears, read: 24 h, maximal response relative to SR-717.
[6] abbreviates: 24 h exposure, normalized to cell viability, oxaliplatin in combinations 5 μM.

Structures are written as SMILES. Read-outs that look alike come from different tables or passages of the source. Bounds are passed on as bounds.

For orientation: EC50 means the concentration at which the effect is half-maximal. Usually IC50 stands for the concentration at which inhibition is half-maximal.

Consider `O=C(Nc1cc(F)c(F)cc1C(=O)[O-])c1ccc(-n2ccnc2)nn1.[Li+]` [SR-717], for which, in experiment [1] (24 h), the “NF-κB EC50 ratio fold SR-717” value worked out at 1.0 fold and the “activation of NF-κB signaling pathway” value is “robustly activated”. The “NF-κB %EMAX of SR-717” value in experiment [1] (setting [5]) came to 100%. For the same compound, in experiment [1] (setting [6]), the EC50 came out at 5.8 µM. In addition, the IC50 in experiment [2] was greater than 75 µM. Moreover, in experiment [3] (24 h), the “IRF EC50 ratio fold SR-717” value worked out at 1.0 fold and the “activation of IRF signaling pathway” value is recorded as “robustly activated”. Also, the “IRF %EMAX of SR-717” value in experiment [3] (setting [5]) stood at 100%. Besides, the EC50 in experiment [3] (setting [6]) was found to be 2.9 µM. The “impact of reducing conditions on IRF-induced reporter signal (AUC ratio +AA/−AA)” value in experiment [3] (AA 50 μM) is recorded as “no notable modulation”. In addition, the EC50 in experiment [4] is 2.1 µM.

These data come from publication PMC11969438 (Inorganic Chemistry Frontiers, 2025).
